Experimental data published in patent US11213527B2, “Inhibitory effect of low molecular weight compound on cancer and fibrosis” (NATIONAL UNIVERSITY CORPORATION TOTTORI UNIVERSITY, priority 2014, dated 2022).

Legend:
[1] = tested on: Wnt/β-catenin signal; test: Luciferase assay in liver stellate cells (LX-2); format: cell-based, human
Experimental: A human liver stellate cell line (LX-2 cells) was maintained and cultured in a DMEM containing 10% FBS. The cells used for experiments were suspended in a DMEM containing 1% FBS and plated. The cell density was at about 2.0×10^5 cell/cm^2.
A luciferase assay was used to investigate an inhibitory effect of each low-molecular-weight compound on a Wnt/β-catenin signal. The luciferase assay was conducted under conditions indicated in FIG. 40 and the following sections 9.3.1 to 9.3.2. FIG. 40 illustrates a protocol when the cells were treated with a low-molecular-weight compound+TGFβ. Substantially the same experiment was carried out when the cells were treated with a low-molecular-weight compound alone or a low-molecular-weight compound+Wnt3a. Note that TGFβ or Wnt3a was added so as to increase the intensity of a Wnt/β-catenin signal.
First, 5×Passive Lysis Buffer was diluted 5-fold with MilliQ water. The lysis buffer was added at 100 μl/well and the plate was shaken for 20 min. The lysate was frozen at −30° C. overnight.
The sample frozen a day before, LARII, a Stop&Glo buffer, and a Stop&Glo substrate (materials other than the sample were shaded) were incubated at room temperature for about 1 h. A Stop&Glo solution (49 μl of the Stop&Glo buffer and 1 μl of the Stop&Glo substrate) was prepared for the number of the samples+1. Next, 50 μl of the LARII was dispensed into a 3.5-ml tube. Then, 10 μl of the sample was added and the tube was set in a measurement instrument. After completion of the first assay, 50 μl of the Stop&Glo solution was added and the tube was again set in the measurement instrument for another assay.

[2] = tested on: liver fibrosis; test: Liver disease model mice (carbon tetrachloride-induced liver fibrosis); format: in vivo, C57BL/6 male mice; details: IC-2 10.6 or 21.2 mg/kg intraperitoneally 3 times a week for 4 weeks, vs vehicle
Experimental: First, 7-week-old C57BL/6 male mice (Japan SLC, Shizuoka, Japan) were subject to 1-week preparatory rearing. Among them, healthy mice were used. The mice were housed in an animal cage at a room temperature of 22±1° C. and a humidity of 50±5% throughout the preparatory rearing and experimental period and were given ad libitum access to food and water.
A microsyringe (ITO CORPORATION, Shizuoka, Japan) was used to intraperitoneally administer carbon tetrachloride (CCl4: Wako Pure Chemical Industries, Ltd., Osaka, Japan) at 0.2 ml/kg, 3 times a week, for 4, 6, or 8 weeks. Carbon tetrachloride was dissolved into cone oil (Wako Pure Chemical Industries, Ltd.) at a concentration of 10%. The resulting solution was used. After this carbon tetrachloride solution was administered for 4 weeks, the mice were divided into a vehicle administration group, a glycyrrhizin administration group, an ICG-001 administration group, and an IC-2 administration group. Then, a microsyringe was used to intraperitoneally administer, 3 times a week for 4 weeks, carbon tetrachloride and a drug solution prepared in accordance with the following process. Note that the carbon tetrachloride and the drug solution were alternately administered with one-day interval.
Glycyrrhizin (TOKYO CHEMICAL INDUSTRY CO., LTD., Tokyo, Japan) was dissolved in physiological saline. The solution was prepared at a concentration of 30 mg/ml while the pH was adjusted to 7.0 with 4 M NaOH liquid. IC-2 and ICG-001 (AdooQ BioScience, California, USA) were each dissolved in a WellSolve (Celeste Corporation, Tokyo, Japan) at a concentration of 40 mg/ml and 10 mg/ml, respectively. Next, the mixture was heated for 10 min in a hot water bath at 60° C. and was then completely dissolved. A 9-fold volume of physiological saline was added to the WellSolve solution in which the above drugs had each been dissolved. […] Note that an IC-2 dosage was determined on the basis of an effective concentration in vitro. […]

[3] = tested on: Wnt/β-catenin signal; test: Dual-luciferase reporter assay in colon cancer cells; format: cell-based; details: DLD-1, HCT 116, colo 205; 48 hours
Experimental: First, 3.34×10^4 colon cancer cells (DLD-1, HCT 116, or colo 205) were seeded on each well of a 24-well plate. After 24 hours, transfection was carried out by using 1 μL of lipofectamine 2000 (Invitrogen, Life Technologies Corp., Carlsbad, Calif.), 50 ng of pTCF4-CMVpro-FLuc, and 2.5 ng of pCMVpro-Rluc. After 48 hours from the low-molecular-weight compound treatment, 100 μL of 20% Passive Lysis Buffer (PROMEGA, Wisconsin, USA) was added to each well of a 24-well plate. The plate was shaken at ordinary temperature for 15 min and was then allowed to stand overnight at −30° C. On the following day, a Dual-Luciferase (a registered trademark) Reporter Assay System (PROMEGA) was used, and luciferase activity was then measured by using a MiniLumat LB 9506 (Berthold Technologies, Bad Wildbad, German).

Structure (SMILES): O=C1[C@H](Cc2ccccc2)N2C(=O)CCN(C(=O)NCc3ccccc3)[C@H]2CN1Cc1cccc2ccccc12 [IC-2]
- inhibition of a Wnt/β-catenin signal in the LX-2 cells ([1]; compound alone, 24 hours): resulted in inhibition
- inhibition of a Wnt/β-catenin signal in the LX-2 cells ([1]; compound alone, 48 hours): resulted in inhibition
- inhibition of a Wnt/β-catenin signal in the LX-2 cells ([1]; compound+TGFβ, 24 hours): resulted in inhibition
- inhibition of a Wnt/β-catenin signal in the LX-2 cells ([1]; compound+TGFβ, 48 hours): resulted in inhibition
- inhibition of a Wnt/β-catenin signal in the LX-2 cells ([1]; compound+Wnt3a, 24 hours): resulted in inhibition
- fibrosis area (Sirius red staining) [2]: a decrease in the fibrosis area was detected
- content of hydroxyproline ([2]; glycyrrhizin 150 mg/kg): a large decrease was observed
- inhibitory effect on a Wnt/β-catenin signal in the colon cancer cells [3]: exerted an inhibitory effect
